Assay results: patent US11964972B2, “Salt form” (CRT Pioneer Fund LP, priority 2018, dated 2024)
Where two headings read alike, the source gives them in different places.

Experiments:
[1] = Method: The ability of samples studied to absorb moisture (or not) over a set of well-determined humidity ranges was assessed. Sorption isotherms were obtained using a Hiden Isochema moisture sorption analyser (model IGAsorp), controlled by IGAsorp Systems Software V6.50.48. The sample was maintained at a constant temperature (25° C.) by the instrument controls. The humidity was controlled by mixing streams of dry and wet nitrogen, with a total flow of 250 ml·min^−1. The instrument was verified for relative humidity content by measuring three calibrated Rotronic salt solutions (10-50-88%). The weight change of the sample was monitored as a function of humidity by a microbalance (accuracy +/−0.005 mg). A defined amount of sample (typically 10-15 mg powder) was placed in a tared mesh stainless steel basket under ambient conditions. A full experimental cycle typically consisted of three scans (desorption, sorption, and desorption) at a constant temperature (25° C.) and 10% RH intervals over a 0-90% range (60 minutes for each humidity level). Solids are then held post cycle at 0% RH for 2-3 hours and tested by XRPD and the remainder held at 90% RH for 2-3 hours and re-tested by XRPD.
[2] = 40° C. and 75% RH, 3 weeks
Method: The ditosylate salt of the compound of formula I was stored at 40° C. and 75% RH in loose screw top vials for 3 weeks.

[3] = for Solubility: Form A, 37° C., minimum of 23 hours; for pH: pH of the aqueous mixture
Method: Crystalline ditosylate salt of the compound of formula I (about 40 mg, Form A) was suspended by gentle shaking in various aqueous buffers, biologically relevant media and formulation vehicles, 2×0.5 ml, at ambient temperature, ca 20° C. The mixtures were then heated to 37° C. with agitation for a minimum of 23 hours. The pH of the aqueous mixtures were also measured.
Table 1 presents the pH measurements and the solubility in various dissolution media.

[4] = Recrystallisation studies (XRPD form classification); type: physicochemical
Method: The ditosylate salt of the compound of formula I (about 100 mg) was suspended in a designated volume of water miscible solvent at a given temperature, followed by the addition of one volume aliquots of pre-heated water until dissolution was achieved. The agitated mixtures were then cooled to 20° C. and agitated for about 16 hours. […] Solvent, solvent ratios and form classification of the isolated solids are detailed in Table 2.

[5] = for XRPD classification: 20/40° C. cycling
Method: The equilibration of a solid in various solvents with temperature modulation is an accepted approach to investigate the form stability of a solid and the generation of alternate modifications, polymorphs/solvates of the material.
The ditosylate of the compound of formula I, 35 mg, was subjected to equilibration in various solvents with agitation at 20° C. for 90 hours, 40° C. for 3 hours, cooled to 20° C. over 3 hours, then heated to 40° C. for 16 hours and cooled to 20° C. The solvents were initially charged to the salts in aliquots, 0.25 ml, until dissolution was observed or a volume of 2 ml achieved. The solids were isolated by filtration and dried in vacuo at 50° C. for about 16 hours and then analysed by XRPD.

MPS1 kinase = biological target: T1, MPS1 kinase (Homo sapiens, UniProt P33981); conditions: background statement; WO 2014/037750; cited from earlier work
T1 sequence (P33981 1-857): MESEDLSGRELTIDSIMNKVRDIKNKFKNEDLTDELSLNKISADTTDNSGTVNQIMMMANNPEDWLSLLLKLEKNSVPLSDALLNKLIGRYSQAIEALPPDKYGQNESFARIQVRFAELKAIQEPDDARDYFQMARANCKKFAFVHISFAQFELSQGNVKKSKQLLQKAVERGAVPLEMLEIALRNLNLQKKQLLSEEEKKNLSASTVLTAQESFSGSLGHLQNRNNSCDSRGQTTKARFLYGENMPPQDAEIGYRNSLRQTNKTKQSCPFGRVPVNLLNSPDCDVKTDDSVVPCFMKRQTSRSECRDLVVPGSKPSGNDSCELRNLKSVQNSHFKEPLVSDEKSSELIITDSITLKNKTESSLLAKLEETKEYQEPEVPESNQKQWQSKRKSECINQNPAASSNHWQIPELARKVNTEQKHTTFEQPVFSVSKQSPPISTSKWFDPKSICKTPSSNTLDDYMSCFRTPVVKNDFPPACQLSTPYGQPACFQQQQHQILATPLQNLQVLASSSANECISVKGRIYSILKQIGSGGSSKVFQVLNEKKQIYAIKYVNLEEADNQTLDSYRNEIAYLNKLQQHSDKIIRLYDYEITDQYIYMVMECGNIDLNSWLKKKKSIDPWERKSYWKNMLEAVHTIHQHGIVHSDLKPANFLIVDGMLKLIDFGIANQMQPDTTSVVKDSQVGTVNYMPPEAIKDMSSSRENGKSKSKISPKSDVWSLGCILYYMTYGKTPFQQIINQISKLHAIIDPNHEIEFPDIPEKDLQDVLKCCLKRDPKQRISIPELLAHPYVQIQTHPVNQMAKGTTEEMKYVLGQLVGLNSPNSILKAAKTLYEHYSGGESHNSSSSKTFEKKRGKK

[6] = from 0 to 90% RH, 25° C., Form A

Structure (SMILES): CCOc1cc(-c2nncn2C)ccc1Nc1ncc2cc(C)nc(NCC(C)(C)C)c2n1.Cc1ccc(S(=O)(=O)O)cc1.Cc1ccc(S(=O)(=O)O)cc1 [ditosylate salt of N2-(2-ethoxy-4-(4-methyl-4H-1,2,4-triazol-3-yl)phenyl)-6-methyl-N8-neopentylpyrido[3,4-d]pyrimidine-2,8-diamine]
- Form change post DVS and at the extremes of humidity (XRPD) ([1]; 0% RH and 90% RH, FIG. 8): no evidence of form change
- DVS profile ([1]; 0-90% RH, 25° C., Form A, FIG. 7): reversible water uptake over the humidity range and no hysteresis
- Water uptake/loss [1, 6]: 2.13%
- Water uptake/loss as equivalents of water [1, 6]: about 1.0 equivalents of water
- Chemical degradation after storage [2]: no evidence of chemical degradation
- Hydration following storage [2]: no evidence
- Form modification after storage (XRPD) ([2]; FIG. 4): No evidence of form modification
- Change in appearance after storage ([2]; loose screw top vials): No change in appearance
- Solubility ([3]; FaSSIF): 14210 µg/mL
- Solubility ([3]; FeSSIF): 1690 µg/mL
- Solubility ([3]; NaCl,0.9%/DMSO/Tween 20): 12690 µg/mL
- Solubility ([3]; PEG300): 2900 µg/mL
- Solubility ([3]; Phosphate buffer): 2240 µg/mL
- Solubility ([3]; SFaGF): 5720 µg/mL
- Solubility ([3]; Sodium chloride 0.9% w/v): 9580 µg/mL
- Solubility ([3]; Water, deionised): 5850 µg/mL
- pH ([3]; Acetate buffer): 4.33
- pH ([3]; FaSSIF): 2.41
- pH ([3]; FeSSIF): 3.05
- pH ([3]; NaCl,0.9%/DMSO/Tween 20): 1.97
- pH ([3]; Phosphate buffer): 2.56
- pH ([3]; SFaGF): 1.40
- pH ([3]; Sodium chloride 0.9% w/v): 2.01
- pH ([3]; Water, deionised): 2.13
- XRPD Observations ([4]; 2-butanone 8 volumes, water 1 volume, 80 ° C.): Form A
- XRPD Observations ([4]; 2-propanol 8 volumes, water 1 volume, 80 ° C.): Form A
- XRPD Observations ([4]; Acetone 10 volumes, water 2 volumes, 60 ° C.): Form A
- XRPD Observations ([4]; Acetonitrile 2 volumes, water 1 volume, 60 ° C.): Form A
- XRPD Observations ([4]; Ethanol 2 volumes, water 1 volume, 60 ° C.): Form A
- XRPD Observations ([4]; Ethanol 15 volumes, no water, 80 ° C.): Form C
- XRPD classification ([5]; equilibration in 1,4-Dioxane): Form A
- XRPD classification ([5]; equilibration in 1-Butanol): Form A
- XRPD classification ([5]; equilibration in 2-Chlorobutane): Form A
- XRPD classification ([5]; equilibration in 2-Methyltetrahydrofuran): Form A
- XRPD classification ([5]; equilibration in 2-Propanol): Form A
- XRPD classification ([5]; equilibration in 3-Methyl-1-butanol): Form A
- XRPD classification ([5]; equilibration in Acetonitrile): Form A
- XRPD classification ([5]; equilibration in Chlorobenzene): Form A
- XRPD classification ([5]; equilibration in Ethyl acetate): Form A
- XRPD classification ([5]; equilibration in Heptane): Form A
- XRPD classification ([5]; equilibration in Isopropyl acetate): Form A
- XRPD classification ([5]; equilibration in Methanol): Form A
- XRPD classification ([5]; equilibration in Methyl isobutyl ketone): Form A
- XRPD classification ([5]; equilibration in Methylcyclohexane): Form A
- XRPD classification ([5]; equilibration in Nitromethane): Form A
- XRPD classification ([5]; equilibration in TBME): Form A
- XRPD classification ([5]; equilibration in Toluene): Form A
- XRPD classification ([5]; equilibration in Trifluorotoluene): Form A
- XRPD classification ([5]; equilibration in Water): Form A
- XRPD classification ([5]; equilibration in n-Butyl acetate): Form A
- Propensity to exhibit version or polymorphic variance ([5]; summary of the polymorphism studies): remarkable lack of propensity to exhibit version or polymorphic variance

Structure (SMILES): CCOc1cc(-c2nncn2C)ccc1Nc1ncc2cc(C)nc(NCC(C)(C)C)c2n1 [compound I, N2-(2-ethoxy-4-(4-methyl-4H-1,2,4-triazol-3-yl)phenyl)-6-methyl-N8-neopentylpyrido[3,4-d]pyrimidine-2,8-diamine]
- MPS1 kinase inhibitory activity (MPS1 kinase): potent MPS1 kinase inhibitory activity

Structure (SMILES): CCOc1cc(-c2nncn2C)ccc1Nc1ncc2cc(C)nc(NCC(C)(C)C)c2n1.Cc1ccc(S(=O)(=O)O)cc1.Cc1ccc(S(=O)(=O)O)cc1 [ditosylate Form C, ditosylate salt of N2-(2-ethoxy-4-(4-methyl-4H-1,2,4-triazol-3-yl)phenyl)-6-methyl-N8-neopentylpyrido[3,4-d]pyrimidine-2,8-diamine Form C]
- Form stability on thermal manipulation (XRPD, DSC) ([4]; solid isolated from exclusively ethanol, FIG. 5, FIG. 6): metastable form that could be thermally converted to ditosylate Form A
